{"source": "paper PMC12730265", "about": "“Combinatorial Antimicrobial Effects of Imidazolium-Based Ionic Liquids and Antifungals on Model Fungal Organisms” (Biomolecules, 2025)", "key": {"S. cerevisiae": {"tested_on": "S. cerevisiae", "assay": "Kirby–Bauer disk diffusion assay on IL-containing YPD plates", "format": "cell-based", "conditions": "for Zone of inhibition (ZOI) diameter: 100 = no growth on plate", "procedure": "Assessment of fungal growth on YPD plates with AFs + ILs served as an indicator for the combined efficacy of treatment of ILs and AFs. YPD agar plates were made with addition of increasing concentrations of [HMIM]Cl at 0, 2.5, 6.25, and 25 mM or [OMIM]Cl at 0, 0.25, 0.625, and 2.5 mM. Plates solidified and dried on bench for 24 h before use. IN total, 400 μL of S. cerevisiae or C. albicans liquid culture at mid-log phase OD600 0.5 was spread using sterile glass beads to achieve even distribution. Following addition of culture, the plates were allowed to dry for 30 min before the addition of antifungal disks. Antifungal-infused disks were prepared using the stock solutions of solubilized antibiotics; 15 μL of each of the 4 azole antifungals at stock concentrations was pipetted onto a sterile 6 mm cellulose disk (BD). […] After plate drying was complete, sterile forceps were used to transfer the disks to the media, and the plate was grown upright in an incubator overnight at 30 °C. The following day, photographs were taken of the plates to visualize the zone of inhibition (ZOI) created by the combined treatment. Adobe Illustrator 2023 CC was used to perform digital measurements of ZOI diameters.\nTo assess the potential for combinatorial effects of ILs and AFs in yeast, Kirby–Bauer disk diffusion assays were performed for C. albicans and S. cerevisiae for [HMIM]Cl and [OMIM]Cl with all four AFs. […] The addition of 6 mm cellulose disks infused with equal volumes of solubilized AFs to the plates occurred after plating of C. albicans or S. cerevisiae, allowing for growth for 48 h at 23 °C, at which point the plates were evaluated for the establishment of zones of inhibition (ZOI). Digital pictures were acquired of all plates, and measurements of ZOI diameter were performed digitally as described in the Methods. […] With progressively increasing amounts of both [HMIM]Cl and [OMIM]Cl, ZOIs increased for all Afs, including Fluconazole and Itraconazole, which appear to be ineffective without IL in the Kirby–Bauer disk assay. Experiments were performed in triplicate and ZOIs were measured for all plates.\nSimilar experiments testing the combinatorial effects of [HMIM]Cl or [OMIM]Cl were performed on S. cerevisiae using Kirby–Bauer disk assays and quantified for changes in ZOI (Appendix Figure A1). ZOI measurements (mm) from both C. albicans and S. cerevisiae were compiled, and the averages are shown numerically as well as with shading and plotted in Figure 3. […] Finally, at intermediate concentrations of both [HMIM]Cl and [OMIM]Cl, a combinatorial effect of IL + AF was evident for all four AFs in S. cerevisiae, similar to observations in C. albicans."}, "C. albicans": {"tested_on": "C. albicans", "assay": "Checkerboard assay IL + Clotrimazole, growth on YPD plate post-treatment (fungicidal)", "format": "cell-based", "conditions": "for average growth, visually scored (2 full, 1 interrupted, 0 no growth): [HMIM]Cl 0 mM", "procedure": "C. albicans was grown overnight in YPD liquid media at 30 °C, at which point it was diluted into 10 mL of YPD media at 0.1 OD600 and was grown to mid-log phase 0.5 OD600 and subsequently diluted to 5 × 10^3 CFU/mL cells in YPD of which 180 μL of culture was distributed into a 96-well round-bottom culture dish. To this dish, 20 μL of IL, AF, or IL + AF was added to each well at concentrations indicated in each experiment. These culture plates were grown in an incubator shaker for 48 h at 30 °C, at which point the cultures were mixed by pipetting and then spotted onto YPD solid plates and allowed to grow for an additional 48 h. After 48 h, plates were visually scored for no growth (0), 50% growth (1), or 100% growth relative to PBS control (2). Experiments were performed in triplicate, and scores were averaged per well.\nIn order to evaluate if the same combinatorial effect was present in liquid culture and furthermore to identify the specific concentrations at which a combined effect may be present, checkerboard assays were performed. […] These assays were completed in triplicate for both [HMIM]Cl and [OMIM]Cl with the addition of Clotrimazole on C. albicans. In this assay, both IL and AF were loaded into a 96-well plate YPD liquid culture plate in double serial dilutions with decreasing IL from top to bottom and decreasing AF from left to right. Each well represents a different final concentration of both drugs in combination. Growth of the target microorganism was measured as growth in liquid media by OD600 nm, representing fungistatic interactions and [2] growth on a YPD plate post-treatment as fungicidal (Figure 4).\nCheckerboard assays were performed in 96-well plates with Clotrimazole + [HMIM]Cl or [OMIM]Cl on C. albicans. These culture plates were grown in an incubator shaker for 48 h at 23 °C, and thereafter C. albicans was mixed by pipetting and then spotted onto YPD solid plates and allowed to grow for an additional 48 h. After 48 h, plates were visually scored for no growth (0), 50% growth (1), or 100% growth relative to PBS control (2). Experiments were performed in triplicate, and scores were averaged per well. […] We measured this by calculating the fractional inhibitory concentration (FIC) score ((MIC50 IL + AF)/(MIC50 AF)) + ((MIC50 IL + AF)/(MIC50 IL)). In this well-established measure of combined interactions, a score < 0.5 indicated synergistic interaction, 0.5–4 potential combinatorial interaction or no effect, and >4 antagonistic interaction."}, "[1]": {"conditions": "in combination with Clotrimazole 4 mg/L"}}, "data": [{"smiles": "CCCCCCCCn1cc[n+](C)c1.[Cl-]", "note": "[[OMIM]Cl, 1-octyl-3-methylimidazolium chloride]", "values": [{"measurement": "growth of S. cerevisiae on IL plate", "setting": "S. cerevisiae; plates with 2.5 mM [OMIM]Cl", "value": "complete inability to grow"}, {"measurement": "antifungal effect of IL without Clotrimazole", "setting": "C. albicans; [OMIM]Cl 6.25 mM", "value": "not completely fungicidal"}, {"measurement": "IL concentration at 50% growth (MIC50 used for FIC)", "setting": "C. albicans; [1]", "value": 390, "unit": "µM"}]}, {"smiles": "CCCCCCn1cc[n+](C)c1.[Cl-]", "note": "[[HMIM]Cl, 1-hexyl-3-methylimidazolium chloride]", "values": [{"measurement": "growth of S. cerevisiae on IL plate", "setting": "S. cerevisiae; plates with 25 mM [HMIM]Cl", "value": "complete inability to grow"}, {"measurement": "IL concentration at 50% growth (MIC50 used for FIC)", "setting": "C. albicans; IL alone, fungicidal checkerboard", "value": 6250, "unit": "µM"}, {"measurement": "antifungal effect of IL without Clotrimazole", "setting": "C. albicans; [HMIM]Cl 12.5 mM", "value": "not completely fungicidal"}, {"measurement": "IL concentration at 50% growth (MIC50 used for FIC)", "setting": "C. albicans; [1]", "value": 1562, "unit": "µM"}]}, {"smiles": "Clc1ccccc1C(c1ccccc1)(c1ccccc1)n1ccnc1", "note": "[Clotrimazole]", "values": [{"measurement": "Zone of inhibition (ZOI) diameter", "setting": "S. cerevisiae; [HMIM]Cl 0 mM in plate", "value": 21.67, "unit": "mm"}, {"measurement": "Zone of inhibition (ZOI) diameter", "setting": "S. cerevisiae; [HMIM]Cl 2.5 mM in plate", "value": 26.67, "unit": "mm"}, {"measurement": "Zone of inhibition (ZOI) diameter", "setting": "S. cerevisiae; [HMIM]Cl 6.25 mM in plate", "value": 50.33, "unit": "mm"}, {"measurement": "Zone of inhibition (ZOI) diameter", "setting": "S. cerevisiae; [HMIM]Cl 25 mM in plate", "value": 100, "unit": "mm"}, {"measurement": "Zone of inhibition (ZOI) diameter", "setting": "S. cerevisiae; [OMIM]Cl 0 M in plate", "value": 21.67, "unit": "mm"}, {"measurement": "Zone of inhibition (ZOI) diameter", "setting": "S. cerevisiae; [OMIM]Cl 0.25 mM in plate", "value": 30, "unit": "mm"}, {"measurement": "Zone of inhibition (ZOI) diameter", "setting": "S. cerevisiae; [OMIM]Cl 0.625 mM in plate", "value": 47.33, "unit": "mm"}, {"measurement": "Zone of inhibition (ZOI) diameter", "setting": "S. cerevisiae; [OMIM]Cl 2.5 mM in plate", "value": 100, "unit": "mm"}, {"measurement": "average growth, visually scored (2 full, 1 interrupted, 0 no growth)", "setting": "C. albicans; Clotrimazole 0.1 mg/L", "value": 2}, {"measurement": "average growth, visually scored (2 full, 1 interrupted, 0 no growth)", "setting": "C. albicans; Clotrimazole 0.25 mg/L", "value": 2}, {"measurement": "average growth, visually scored (2 full, 1 interrupted, 0 no growth)", "setting": "C. albicans; Clotrimazole 0.5 mg/L", "value": 2}, {"measurement": "average growth, visually scored (2 full, 1 interrupted, 0 no growth)", "setting": "C. albicans; Clotrimazole 1 mg/L", "value": 2}, {"measurement": "average growth, visually scored (2 full, 1 interrupted, 0 no growth)", "setting": "C. albicans; Clotrimazole 2 mg/L", "value": 1.67}, {"measurement": "average growth, visually scored (2 full, 1 interrupted, 0 no growth)", "setting": "C. albicans; Clotrimazole 4 mg/L", "value": 1.33}, {"measurement": "average growth, visually scored (2 full, 1 interrupted, 0 no growth)", "setting": "C. albicans; Clotrimazole 8 mg/L", "value": 1}, {"measurement": "average growth, visually scored (2 full, 1 interrupted, 0 no growth)", "setting": "C. albicans; Clotrimazole 15 mg/L", "value": 1}, {"measurement": "average growth, visually scored (2 full, 1 interrupted, 0 no growth)", "setting": "C. albicans; Clotrimazole 31 mg/L", "value": 1}, {"measurement": "average growth, visually scored (2 full, 1 interrupted, 0 no growth)", "setting": "C. albicans; Clotrimazole 62 mg/L", "value": 0.67}, {"measurement": "average growth, visually scored (2 full, 1 interrupted, 0 no growth)", "setting": "C. albicans; Clotrimazole 125 mg/L", "value": 0.67}, {"measurement": "average growth, visually scored (2 full, 1 interrupted, 0 no growth)", "setting": "C. albicans; Clotrimazole 250 mg/L", "value": 0.33}, {"measurement": "Clotrimazole concentration at 50% growth", "setting": "C. albicans; with 0.39 mM [OMIM]Cl", "value": 4, "unit": "mg/L"}, {"measurement": "Clotrimazole concentration at 50% growth", "setting": "C. albicans; with 1.562 mM [HMIM]Cl", "value": 4, "unit": "mg/L"}]}]}
